Reference: US20200354426A1 (MEDIMMUNE LIMITED, priority 2016, published 2020)
Where two headings read alike, the source gives them in different places. Marks after values point to notes of the source that are not given here. Numbered stars: 1 amine (or outer) side, 2 acyl side, 3 side chain; on linkers, the order of the positions; unused ones are H or OH. Side chains are listed from the residue outwards. Peptide text beside a SMILES is read from it. * marks the point of attachment. γGlu = O=C(O)[C@H](CCC(=O)[*:2])N[*:1]; Palmitoyl = CCCCCCCCCCCCCCCC(=O)*

Assays:
Human GlucR = target: T1, Human GlucR (Homo sapiens, UniProt P47871); assay: cAMP activity assay in assay medium (assay 1); type: cell-based; settings: assay medium
T1 construct: expressed in transfected cells
Description: Biological Activity of Peptides in Cell-Based cAMP Activity Assay (Assay 1):
All sample dilutions were made in duplicate.

[1] = Peptide solubility in buffers (A280); type: physicochemical
Description: G730 was soluble in a pH range of 4.5 to 8.0.

[2] = system: diet induced obesity (DIO) mouse model; assay: Diet induced obesity (DIO) mouse model, study A; type: in vivo; settings: for BeHy / FGF21 / HOMA / Hepatic TG / Plasma Cholesterol / Plasma NEFA / Plasma TG: day 14; for Glucose / Insulin: day 14, 4-hour fasting
Description: Female C57/B16JHsdOla (obtained from Harlan Laboratories. UK) were started on a high fat diet of D12492 (Research Diets, NJ, USA) and a chocolate confection, delicato ball (Delicata Bakverk, Sweden) at 9-11 weeks of age, and were maintained on the diet for 16 weeks prior to arrival to the animal facility, during a three week acclimation period and during drug treatment, caloric content of the two components of the diet is shown in Table 11. The mice were divided into 9 groups (n=5-6), and treatment was started at 29 weeks of age.
The body weight of the animals was monitored daily throughout the dosing period. At day 14, blood samples for the measurement of plasma glucose and insulin from conscious mice were obtained after a 4-hour fasting period. Mice were then anaesthetized using isoflurane and terminal blood was collected from the capillary bed behind the eye. The following parameters were measured: blood chemistry measurements of triglycerides, total cholesterol, non-esterified fatty acids (NEFA), beta-hydroxybutyrate and fibroblast growth factor 21 (FGF21) (Tables 14 and 15 below).

[3] = system: overweight or obese subjects with type 2 diabetes mellitus; assay: Phase 1/2 multiple-ascending-dose study of G933, Cohorts 1-6 (efficacy, PK, safety); type: in vivo, human
Description: Approximately 75 overweight or obese subjects with relatively well controlled type 2 diabetes mellitus (T2DM) are enrolled to participate in the study. The enrolled subjects meet the following inclusion and exclusion criteria.
Exclusion Criteria: • Any condition that would interfere with evaluations of the investigational product or interpretation of subject safety or study results. […] Patients who utilize benzodiazepines for chronic anxiety or sleep disorders may be permitted to enter the study; • History of severe allergy/hypersensitivity or ongoing clinically important allergy/hypersensitivity; • Whole blood or red blood cell donation, or any blood loss >500 mL during the 2 months prior to screening; • Received another new chemical entity (defined as a compound that has not been approved for marketing), or has participated in any other clinical study that included drug treatment within at least 30 days or 5 half-lives prior to the first administration of investigational product in this study (whichever is longer). The period of exclusion to begin 30 days or 5 half-lives of investigational product after the final dose, or after the last visit, whichever is longest.
Part A consists of 3 cohorts.
Part B consists of 1 cohort.
The initial dose is 100 μg.
Approximately 32 overweight or obese subjects with relatively well controlled type 2 diabetes mellitus (T2DM) are enrolled to participate in the study. The enrolled subjects meet the inclusion and exclusion criteria described in Example 5 with the following exceptions:
Inclusion Criteria: • Cohort 5 and 6 subjects must be willing and able to self-administer daily subcutaneous (SC) injections following an initial self-injection of placebo (or normal saline) during the screening period.
Exclusion Criteria: • Abnormal vital signs, after 10 minutes of supine rest, are defined as any of the following: (a) If systolic BP<90 mm Hg or ≥140 mm Hg; (b) Diastolic BP<50 mm Hg or ≥90 mm Hg; or (c) HR<45 or >85 bpm; • Unstable angina pectoris or stable angina pectoris classified higher than Canadian Cardiovascular Society class II or any previous medical history of myocardial infarction or stroke, or a history of a transient ischemic attack within the prior 12 months.
A randomized, double-blind, multiple-ascending dose study is performed. This study consists of 2 cohorts: cohort 5 and cohort 6. […] Cohorts 5 and 6 have approximately 32 subjects total and are run in parallel.
The study consists of an inpatient up-titration evaluation period beginning on Day 3 for both Cohorts 5 and 6 and an outpatient follow-up period. The first 4 days and the final day of dosing at 300 μg […].
Subjects are admitted to the clinic as described in Example 5 for Cohorts 1-4. […] Subjects have a second inpatient period for the initiation of the 300 μg dose ending on the fourth day at that dose followed by at-home self administration.
Additional time points include before commencing the 300 μg dose (Day 16 for Cohort 5 and Day 11 for Cohort 6) and at the end of dosing (Day 22 for Cohort 5 and Day 17 for Cohort 6). The MMT are performed as described in Example 5.

[4] = Cohort 4, after 41 days, p<0.001

T1 sequence (P47871 26-477): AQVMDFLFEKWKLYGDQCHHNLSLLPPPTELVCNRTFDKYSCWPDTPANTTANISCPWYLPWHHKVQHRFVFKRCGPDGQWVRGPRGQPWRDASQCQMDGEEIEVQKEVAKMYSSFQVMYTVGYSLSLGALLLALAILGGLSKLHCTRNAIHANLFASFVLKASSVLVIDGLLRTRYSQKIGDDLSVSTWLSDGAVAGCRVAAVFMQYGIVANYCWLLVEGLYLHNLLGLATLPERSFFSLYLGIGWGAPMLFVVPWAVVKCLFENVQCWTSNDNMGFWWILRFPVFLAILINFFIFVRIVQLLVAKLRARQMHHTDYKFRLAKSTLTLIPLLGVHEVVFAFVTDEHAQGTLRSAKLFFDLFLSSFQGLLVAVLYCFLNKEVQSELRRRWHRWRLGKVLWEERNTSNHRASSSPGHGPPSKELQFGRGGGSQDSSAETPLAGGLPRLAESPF

## CCCCCCCCCCCCCCCC(=O)N[C@@H](CCC(=O)NCCCC[C@H](NC(=O)[C@H](CCCCN)NC(=O)[C@H](CO)NC(=O)[C@H](Cc1ccc(O)cc1)NC(=O)[C@H](CC(=O)O)NC(=O)[C@H](CO)NC(=O)[C@@H](NC(=O)[C@H](Cc1ccccc1)NC(=O)[C@@H](NC(=O)CNC(=O)[C@H](CCC(N)=O)NC(=O)[C@H](CO)NC(=O)[C@@H](N)Cc1c[nH]cn1)[C@@H](C)O)[C@@H](C)O)C(=O)N[C@@H](CC(C)C)C(=O)N[C@@H](CC(=O)O)C(=O)N[C@@H](CO)C(=O)N[C@@H](CCC(=O)O)C(=O)N[C@@H](CCCNC(=N)N)C(=O)N[C@@H](C)C(=O)N[C@@H](CCCNC(=N)N)C(=O)N[C@@H](CC(=O)O)C(=O)N[C@@H](Cc1ccccc1)C(=O)N[C@H](C(=O)N[C@@H](C)C(=O)N[C@@H](Cc1c[nH]c2ccccc12)C(=O)N[C@@H](CC(C)C)C(=O)N[C@H](C(=O)N[C@@H](C)C(=O)NCC(=O)NCC(N)=O)C(C)C)C(C)C)C(=O)O [Peptide G730] (H-HSQGTFTSDYSKK([γGlu-Palmitoyl])LDSERARDFVAWLVAGG-NH2; N-terminus assumed)
Human GlucR; Table 2, C-terminal amide peptides, read-out: Human GlucR EC50
  EC50: 0.00623 nM
Human GlucR; Table 4, read-out: hGlucR EC50
  EC50: 0.015 nM
[1]; Glutamate pH 4.5, 100 mM
  Conc. (A280), target 1 mg/ml: 0.83 mg/mL
[1]; Phosphate pH 6.5, 100 mM
  Conc. (A280), target 1 mg/ml: 0.83 mg/mL
[1]; Phosphate pH 7.5, 100 mM
  Conc. (A280), target 1 mg/ml: 0.85 mg/mL
[1]; Phosphate, pH = 6, 100 mM
  Conc. (A280), target 1 mg/ml: 0.14 mg/mL
[1]; Tris pH 7.5, 100 mM
  Conc. (A280), target 1 mg/ml: 0.83 mg/mL
[1]; Tris pH 8.0, 100 mM
  Conc. (A280), target 1 mg/ml: 1.1 mg/mL
[2]; 10 nmol/kg sc twice daily 14 days
  BW day 14 (% change of vehicle mean): −7.5%
[2]; 10 nmol/kg sc twice daily
  BeHy: 428 µmol/L
  FGF21: 1963 pg/mL
  HOMA: 3.3
  Hepatic TG: 9.0 * g TB/100 g tissue
  Plasma Cholesterol: 3.10 mM
  Plasma NEFA: 0.28 Mm
  Plasma TG: 0.21 mM
  Glucose: 7.2 mM
  Insulin: 0.4 nM
[2]; 20 nmol/kg sc twice daily 14 days
  BW day 14 (% change of vehicle mean): −15.6%
[2]; 20 nmol/kg sc twice daily
  BeHy: 750 µmol/L
  FGF21: 2236 pg/mL
  HOMA: 1.7
  Hepatic TG: 17.7 g TB/100 g tissue
  Plasma Cholesterol: 2.46 mM
  Plasma NEFA: 0.25 Mm
  Plasma TG: 0.20 mM
  Glucose: 6.7 mM
  Insulin: 0.2 nM
[2]; 50 nmol/kg sc twice daily
  BeHy: 1477 µmol/L
  FGF21: 5294 pg/mL
  HOMA: 2.1
  Hepatic TG: 28.1 g TB/100 g tissue
  Plasma Cholesterol: 2.19 mM
  Plasma NEFA: 0.32 Mm
  Plasma TG: 0.23 mM
  Glucose: 5.9 mM
  Insulin: 0.3 nM
[2]; DIO mice, FIGS. 1-4
  body weight over the 14 day dosing period: dose dependent and continuous weight loss

## L-Histidyl-L-seryl-L-glutaminylglycyl-L-threonyl-L-phenylalanyl-L-threonyl-L-seryl-L-alpha-aspartyl-(N6-[N-(1-oxohexadecyl)-L-gamma-gutamyl])L-lysy-L-sery-L-alpha-glutamyl-L-tyrosyl-L-leucyl-L-alpha-aspartyl-L-seryl-L-alpha-glutamyl-L-arginyl-L-alanyl-L-arginyl-L-alpha-L-aspartyl-L-phenylalanyl-L-valyl-L-alanyl-L-tryptophyl-L-leucyl-L-alpha-glutamyl-L-alanylglycylglycine [Peptide G933]
[3]; Cohort 1, 100 ug, n = 6
  Fasting Glucose (change): -28.00 mg/dL
  Weight (change): -1.1 kg
[3]; Cohort 2, 150 ug, n = 6
  Fasting Glucose (change): -17.90 mg/dL
  Weight (change): -0.5 kg
[3]; Cohort 3 (up to 200 μg, 15 days)
  weight differential: more than 2 kg
[3]; Cohort 3, 200 ug, n = 6
  Fasting Glucose (change): -43.20 mg/dL
  Weight (change): -2.4 kg
[3]; Cohort 4, 200 ug, n = 25
  Fasting Glucose (change): -32.62 mg/dL
  Weight (change): -2.11 kg
[3]; Cohort 4, after 41 days
  patients who lost at least 2% of their weight: 84%
  patients who lost at least 5 kg: 44%
  percent of weight lost: about 4.18%
  weight lost: about 3.83 kg
[3]; Cohort 4, after 41 days of treatment
  HbA1c reduction: 0.92%
[3]; [4]
  percent weight loss difference between G933 and placebo: 2.47%
  weight loss difference between G933 and placebo: 2.12 kg
[3]; Cohort 4, up to 200 μg, 90% C.I. −47.1, −29.0
  mean reduction in glucose AUC from baseline (day 1) to day 41: 38.5%
[3]; Cohort 4, 95% CI 7.2, 33.9, p=0.004
  mean relative reduction in liver fat percentage from baseline versus placebo: 20.5%
[3]; Cohort 4, (−0.24, −0.03), p=0.01
  reduction in liver volume compared to placebo: 0.14 L
[3]; Cohort 4, baseline mean […]
  mean HbA1c on day 42: 6.3%
[3]; Cohort 5 (up to 300 μg, 22 days), 90% C.I. −49.9, −33.5
  glucose AUC reduction: 41.7%
[3]; Cohort 5, 300 ug, n = 12
  Fasting Glucose (change): -24.40 mg/dL
  Weight (change): -2.11 kg
[3]; Cohort 5, after 22 days
  weight loss difference versus placebo: 2.11 kg
  weight lost: about 3.09 kg
[3]; Cohort 6 (up to 300 μg, 17 days), C.I. −43.3, −28.3
  glucose AUC reduction: 35.8%
[3]; Cohort 6, 300 ug, n = 12
  Fasting Glucose (change): -36.94 mg/dL
  Weight (change): -1.88 kg
[3]; Cohort 6, after 17 days
  weight loss difference versus placebo: 1.88 kg
  weight lost: about 2.23 kg
[3]; Cohorts 1-3 (100-200 μg QD)
  mixed-meal test glucose AUC reduction: > 40%
[3]; Cohorts 1-3, dose dependent trend
  weight loss: up to 2 kg
